Experimental data taken from patent US4357331A, “7αMethoxycephalosporin derivatives” (Meiji Seika Kaisha, Ltd., priority 1978, dated 1982).
Converted amounts (≈) assume the structure as drawn. Where two headings read alike, the source gives them in different places.

Experiments:
Escherichia coli No. 29 = assay: in vivo antibacterial activity (ED50) in mice challenged intraperitoneally with E. coli No. 29; design: species or system Escherichia coli No. 29; Male ddY mice; conditions: male ddY mice, fatality over a week, Probit method
[1] = system: Staphylococcus aureus 209p; assay: MIC, minimum inhibitory concentration (nutrient agar, 37° C., 20 hours); format: cell-based
[2] = system: Bacillus anthracis No. 119; assay: microbe, parasite or virus in culture; format: cell-based; conditions: NO.119, 20 h, read-out: MIC (minimum inhibitory concentration)
Escherichia coli 255 = assay: MIC, minimum inhibitory concentration (nutrient agar, 37° C., 20 hours); format: cell-based
Citrobacter freundii = assay: as above; format: cell-based
Klebsiella pneumoniae = assay: as above; format: cell-based; conditions: read-out: MIC (minimum inhibitory concentration)
Proteus morganii = assay: as above; format: cell-based; conditions: Morganella morganii
[3] = system: Serratia marcescens No. 1; assay: as above; format: cell-based; conditions: read-out: MIC (minimum inhibitory concentration)
[4] = system: Pseudomonas aeruginosa IFO 3080; assay: as above; format: cell-based; conditions: IFO3080
[5] = Serratia marcescens No. 1, 37° C., 20 hours

## COC(=O)C(N)CSCC(=O)NC1(OC)C(=O)N2C(C(=O)OC(C)OC(C)=O)=C(CSc3nnnn3C)CSC21 (stereo not drawn) [Example 18, 1-acetoxyethyl 7β-(2D-2-amino-2-methoxycarbonyl)ethylthioacetamido-7α-methoxy-3-(1-methyl-1H-tetrazol-5-yl)thiomethyl-3-cephem-4-carboxylate]
Escherichia coli No. 29; oral
  ED50 with Escherichia coli No. 29: 0.36 mg/mouse
Escherichia coli No. 29; subcutaneous
  ED50 with Escherichia coli No. 29: 0.24 mg/mouse

## COC1(NC(=O)CSCCC(N)C(=O)O)C(=O)N2C(C(=O)O)=C(CSc3nnnn3C)CSC21 (stereo not drawn) [Ex. 11, sodium 7β-(3D-3-amino-3-carboxy)propylthioacetamido-7α-methoxy-3-(1-methyl-1H-tetrazol-5-yl)thiomethyl-3-cephem-4-carboxylate]
[1]
  MIC: 3.13 µg/mL
[2]
  MIC: 0.2 µg/mL
Escherichia coli 255
  MIC: 0.78 µg/mL
Citrobacter freundii
  MIC: 25 µg/mL
Klebsiella pneumoniae; 37° C., 20 hours
  MIC: 1.56 µg/mL
Proteus morganii
  MIC: 3.13 µg/mL
[3]; [5]
  MIC: 0.78 µg/mL
[4]
  MIC: 100 µg/mL

## CC1=C(C(=O)O)N2C(=O)[C@@H](NC(=O)[C@H](N)c3ccccc3)[C@H]2SC1 [Cephalexin, cephalexin, reference compound]
Escherichia coli No. 29; oral
  ED50 with Escherichia coli No. 29: 1.60 mg/mouse

## COC1(NC(=O)CSCCN)C(=O)N2C(C(=O)O)=C(CSc3nnnn3C)CSC21 (stereo not drawn) [Ex. 1, 7β-aminoethylthioacetamido-7α-methoxy-3-(1-methyl-1H-tetrazol-5-yl)thiomethyl-3-cephem-4-carboxylic acid]
[1]
  MIC: 1.56 µg/mL (≈ 3.28 µM)
[2]
  MIC: 0.39 µg/mL (≈ 0.82 µM)
Escherichia coli 255
  MIC: 6.25 µg/mL (≈ 13.1 µM)
Citrobacter freundii
  MIC: 1.56 µg/mL (≈ 3.28 µM)
Klebsiella pneumoniae; 37° C., 20 hours
  MIC: 3.13 µg/mL (≈ 6.58 µM)
Proteus morganii
  MIC: 6.25 µg/mL (≈ 13.1 µM)
[3]; [5]
  MIC: 3.13 µg/mL (≈ 6.58 µM)
[4]
  MIC: 25 µg/mL (≈ 52.6 µM)

## CO[C@@]1(NC(=O)Cc2cccs2)C(=O)N2C(C(=O)O)=C(COC(N)=O)CS[C@@H]21 [Cefoxitin, cefoxitin, reference compound]
[1]
  MIC: 1.56 µg/mL (≈ 3.65 µM)
[2]
  MIC: 3.13 µg/mL (≈ 7.32 µM)
Escherichia coli 255
  MIC: 50 µg/mL (≈ 117 µM)
Citrobacter freundii
  MIC: 50 µg/mL (≈ 117 µM)
Klebsiella pneumoniae; 20 h
  MIC: 3.13 µg/mL (≈ 7.32 µM)
Proteus morganii
  MIC: 6.25 µg/mL (≈ 14.6 µM)
[3]; Serratia marcescens, NO.1, 20 h
  MIC: 3.13 µg/mL (≈ 7.32 µM)
[4]
  MIC: 100 µg/mL (≈ 234 µM)
Escherichia coli No. 29; oral
  ED50 with Escherichia coli No. 29: > 5.0 mg/mouse
Escherichia coli No. 29; subcutaneous
  ED50 with Escherichia coli No. 29: 0.43 mg/mouse

## COC1(NC(=O)CSCC(N)C(=O)O)C(=O)N2C(C(=O)OC(C)OC(=O)C(C)(C)C)=C(CSc3nnnn3C)CSC21 (stereo not drawn) [Example 19, 1-pivaloyloxyethyl 7β-(2D-2-amino-2-carboxy)ethylthioacetamido-7α-methoxy-3-(1-methyl-1H-tetrazol-5-yl)thiomethyl-3-cephem-4-carboxylate]
Escherichia coli No. 29; oral
  ED50 with Escherichia coli No. 29: 0.25 mg/mouse
Escherichia coli No. 29; subcutaneous
  ED50 with Escherichia coli No. 29: 0.17 mg/mouse

## COC1(NC(=O)CSCCC(N)C(=O)O)C(=O)N2C(C(=O)[O-])=C(C[n+]3ccc(C(N)=O)cc3)CSC21 (stereo not drawn) [Ex. 12, 7β-(3DL-3-amino-carboxy)propylthioacetamido-7α-methoxy-3-(p-carbamoylpyridinium)methyl-3-cephem-4-carboxylic acid]
[1]
  MIC: 6.25 µg/mL (≈ 11.6 µM)
[2]
  MIC: 1.56 µg/mL (≈ 2.89 µM)
Escherichia coli 255
  MIC: 3.13 µg/mL (≈ 5.8 µM)
Citrobacter freundii
  MIC: 25 µg/mL (≈ 46.3 µM)
Klebsiella pneumoniae; 37° C., 20 hours
  MIC: 6.25 µg/mL (≈ 11.6 µM)
Proteus morganii
  MIC: 12.5 µg/mL (≈ 23.2 µM)
[3]; [5]
  MIC: 12.5 µg/mL (≈ 23.2 µM)
[4]
  MIC: 6.25 µg/mL (≈ 11.6 µM)

## COC1(NC(=O)CSCCNC(N)=O)C(=O)N2C(C(=O)O)=C(CSc3nnnn3C)CSC21 (stereo not drawn) [Ex. 2, 7β-ureidoethylthioacetamido-7α-methoxy-3-(1-methyl-1H-tetrazol-5-yl)thiomethyl-3-cephem-4-carboxylic acid]
[1]
  MIC: 3.13 µg/mL (≈ 6.04 µM)
[2]
  MIC: 0.78 µg/mL (≈ 1.5 µM)
Escherichia coli 255
  MIC: 12.5 µg/mL (≈ 24.1 µM)
Citrobacter freundii
  MIC: 25 µg/mL (≈ 48.2 µM)
Klebsiella pneumoniae; 37° C., 20 hours
  MIC: 1.56 µg/mL (≈ 3.01 µM)
Proteus morganii
  MIC: 3.13 µg/mL (≈ 6.04 µM)
[3]; [5]
  MIC: 3.13 µg/mL (≈ 6.04 µM)
[4]
  MIC: 25 µg/mL (≈ 48.2 µM)

## CCOC(=O)C(N)CSCC(=O)NC1(OC)C(=O)N2C(C(=O)OCOC(=O)C(C)(C)C)=C(CSc3nnnn3C)CSC21 (stereo not drawn) [Example 17, pivaloyloxymethyl 7β-(2D-2-amino-2-ethoxycarbonyl)ethylthioacetamido-7α-methoxy-3-(1-methyl-1H-tetrazol-5-yl)thiomethyl-3-cephem-4-carboxylate]
Escherichia coli No. 29; oral
  ED50 with Escherichia coli No. 29: 0.86 mg/mouse
Escherichia coli No. 29; subcutaneous
  ED50 with Escherichia coli No. 29: 0.046 mg/mouse
